From US20230414826A1, “FIBRIN HYDROGELS” (Mayo Foundation for Medical Education and Research, priority 2020, published 2023)

Target: T1, fibrinogen (Evicel) (Homo sapiens, UniProt P02671+P02675+P02679)
T1 construct: purchased Ethicon (Evicel Biologically Active Component 2)
T1 sequence (P02671 20-629 limits assumed): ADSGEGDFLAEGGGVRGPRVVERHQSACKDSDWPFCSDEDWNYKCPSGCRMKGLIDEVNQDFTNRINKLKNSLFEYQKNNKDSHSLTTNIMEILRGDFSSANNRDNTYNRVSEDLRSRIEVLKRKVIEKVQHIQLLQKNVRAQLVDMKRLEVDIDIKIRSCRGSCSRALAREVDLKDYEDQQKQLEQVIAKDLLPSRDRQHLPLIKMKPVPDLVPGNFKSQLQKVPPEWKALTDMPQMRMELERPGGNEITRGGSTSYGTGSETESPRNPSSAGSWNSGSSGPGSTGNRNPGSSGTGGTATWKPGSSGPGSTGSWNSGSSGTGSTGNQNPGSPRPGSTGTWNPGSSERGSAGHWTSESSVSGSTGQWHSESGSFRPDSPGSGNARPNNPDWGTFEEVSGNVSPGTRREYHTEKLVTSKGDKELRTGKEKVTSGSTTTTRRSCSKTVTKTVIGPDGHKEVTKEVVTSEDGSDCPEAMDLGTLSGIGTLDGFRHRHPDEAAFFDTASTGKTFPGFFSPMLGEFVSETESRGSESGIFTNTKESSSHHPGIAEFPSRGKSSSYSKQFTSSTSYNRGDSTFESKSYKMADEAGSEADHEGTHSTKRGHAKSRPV
T1 sequence (P02675 31-491): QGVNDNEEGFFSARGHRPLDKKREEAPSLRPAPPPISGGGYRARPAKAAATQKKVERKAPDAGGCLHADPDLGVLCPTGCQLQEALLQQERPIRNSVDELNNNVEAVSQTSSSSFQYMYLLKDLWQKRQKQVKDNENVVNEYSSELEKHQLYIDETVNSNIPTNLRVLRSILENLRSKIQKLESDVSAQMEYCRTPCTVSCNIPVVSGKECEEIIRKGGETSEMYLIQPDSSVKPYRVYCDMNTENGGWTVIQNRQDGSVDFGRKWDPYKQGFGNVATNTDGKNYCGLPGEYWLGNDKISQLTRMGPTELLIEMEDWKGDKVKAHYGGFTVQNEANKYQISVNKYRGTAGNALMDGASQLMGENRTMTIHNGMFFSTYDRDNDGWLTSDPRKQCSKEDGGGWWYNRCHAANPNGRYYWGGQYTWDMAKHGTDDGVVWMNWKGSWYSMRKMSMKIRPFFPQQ
T1 sequence (P02679 27-433 limits assumed): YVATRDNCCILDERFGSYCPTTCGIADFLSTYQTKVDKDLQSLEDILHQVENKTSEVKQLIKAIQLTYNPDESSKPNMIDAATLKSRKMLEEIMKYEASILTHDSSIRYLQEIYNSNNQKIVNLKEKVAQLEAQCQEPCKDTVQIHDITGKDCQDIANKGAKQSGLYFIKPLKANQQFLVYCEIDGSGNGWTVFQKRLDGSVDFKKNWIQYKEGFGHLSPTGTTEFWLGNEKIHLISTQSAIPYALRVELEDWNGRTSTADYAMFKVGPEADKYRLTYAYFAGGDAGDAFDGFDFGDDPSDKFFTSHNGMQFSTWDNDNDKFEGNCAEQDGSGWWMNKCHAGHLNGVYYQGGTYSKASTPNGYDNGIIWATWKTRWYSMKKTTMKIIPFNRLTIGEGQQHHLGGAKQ
Assay: Fibrinogen clotting assay with coagulation analyzer (Clauss method), tissue glue fibrinogen
Type: biochemical
Conditions: for gelation time (average clotting time): 4.58 mM additive in PBS, fixed 1:20 dilution of fibrinogen (Evicel), n=10; for Effect on Clotting Time: screen, multiple concentrations up to 4.58 mM

| gelation time (average clotting time) | Effect on Clotting Time | Compound | also measured |
| --- | --- | --- | --- |
| 18.9 ± 3.3 s | No effect | Cc1cc(N=Nc2ccc(C)c(N=Nc3cc(C)c(N)cc3N)c2)c(N)cc1N.Cl.Cl [BBr, Bismarck Brown R, reference compound] |  |
|  | caused protein precipitation | Nc1c(/N=N/c2ccc(-c3ccc(/N=N/c4cc(S(=O)(=O)O)c5ccccc5c4N)cc3)cc2)cc(S(=O)(=O)O)c2ccccc12 [CR, Congo Red, reference compound] | Effect on Clotting Time (listed as Congo Red (CR)): Precip |
|  | caused protein precipitation | CC1(C)C(/C=C/C=C/C=C/C=C2\N(CCCCS(=O)(=O)O)c3ccc4ccccc4c3C2(C)C)=[N+](CCCCS(=O)(=O)[O-])c2ccc3ccccc3c21 [ICG, Indocyanine Green, reference compound] | Effect on Clotting Time (listed as Indocyanine Green (ICG)): Precip |
| 18.5 ± 2.6 s | No effect | O=C([O-])c1ccccc1-c1c2ccc(=O)cc-2oc2cc([O-])ccc12.[Na+].[Na+] [SF, Sodium Fluorescein, reference compound] |  |
|  | caused protein precipitation | Alcian Blue [AB, reference compound] | Effect on Clotting Time (listed as Alcian Blue (AB)): Precip |
|  | caused protein precipitation | Brilliant Blue R [BB, reference compound] | Effect on Clotting Time (listed as Brilliant Blue R (BB)): Precip |
